From the supplement of paper PMC9938120

Legend:
Assay in all cases: drug sensitivity score (DSS3, normalised partial AUC of % inhibition dose-response) (DSS (score)); higher = more sensitive (stronger inhibition of viability); extreme values may be limits of the assay
[1] = system: FMOC02_1 (patient-derived low-grade serous ovarian cancer cells); conditions: 72 h; library: FO5A; assay format: 2D, 384-well, CellTiter-Glo
In short: (§1)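 The drug sensitivity score is calculated as a partial area under the percent-inhibition dose-response curve, divided by the log of the upper asymptote; higher scores mean more sensitive. For this score, early-passage (under 10) patient-derived ovarian cancer cells were exposed on 384-well flat clear-bottom plates to compounds at five concentrations across a 10,000-fold range for 72 h at 37 °C, 5% CO2. Viability was read with CellTiter-Glo and processed in Breeze.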

[2] = system: FMOC02_2 (patient-derived low-grade serous ovarian cancer cells); conditions: 72 h; library: FO5A; assay format: 2D, 384-well, CellTiter-Glo
In short: as §1

[3] = system: FMOC02_3 (patient-derived low-grade serous ovarian cancer cells); conditions: 72 h; library: FO5A; assay format: 2D, 384-well, CellTiter-Glo
In short: as §1

[4] = system: FMOC03 (patient-derived mucinous ovarian cancer cells); conditions: 72 h; library: FO5A; assay format: 2D, 384-well, CellTiter-Glo
In short: as §1

[5] = system: FMOC04 (patient-derived high-grade serous ovarian cancer cells); conditions: 72 h; library: FO5A; assay format: 2D, 384-well, CellTiter-Glo
In short: as §1

[6] = system: FMOC06 (patient-derived mucinous ovarian cancer cells); conditions: 72 h; library: FO5A; assay format: 2D, 384-well, CellTiter-Glo
In short: as §1

[7] = system: FMOC09 (patient-derived high-grade serous ovarian cancer cells); conditions: 72 h; library: FO5A; assay format: 2D, 384-well, CellTiter-Glo
In short: as §1

[8] = system: FMOC11 (patient-derived high-grade serous ovarian cancer cells); conditions: 72 h; library: FO5A; assay format: 2D, 384-well, CellTiter-Glo
In short: as §1

[9] = system: FMOC14 (patient-derived high-grade serous ovarian cancer cells); conditions: 72 h; library: FO5A; assay format: 2D, 384-well, CellTiter-Glo
In short: as §1

[10] = system: FMOC17 (patient-derived low-grade serous ovarian cancer cells); conditions: 72 h; library: FO5A; assay format: 2D, 384-well, CellTiter-Glo
In short: as §1

[11] = system: FMOC22 (patient-derived mucinous ovarian cancer cells); conditions: 72 h; library: FO5A; assay format: 2D, 384-well, CellTiter-Glo
In short: as §1

[12] = system: FMOC24 (patient-derived high-grade serous ovarian cancer cells); conditions: 72 h; library: FO5A; assay format: 2D, 384-well, CellTiter-Glo
In short: as §1

[13] = system: FMOC25_1 (patient-derived low-grade serous ovarian cancer cells); conditions: 72 h; library: FO4B; assay format: 2D, 384-well, CellTiter-Glo
In short: as §1

[14] = system: FMOC25_2 (patient-derived low-grade serous ovarian cancer cells); conditions: 72 h; library: FO5A; assay format: 2D, 384-well, CellTiter-Glo
In short: as §1

[15] = system: FMOC27 (patient-derived low-grade serous ovarian cancer cells); conditions: 72 h; library: FO5A; assay format: 2D, 384-well, CellTiter-Glo
In short: as §1

[16] = system: FMOC28 (patient-derived low-grade serous ovarian cancer cells); conditions: 72 h; library: FO5A; assay format: 2D, 384-well, CellTiter-Glo
In short: as §1

| Compound | drug sensitivity score [1] | drug sensitivity score [2] | drug sensitivity score [3] | drug sensitivity score [4] | drug sensitivity score [5] | drug sensitivity score [6] | drug sensitivity score [7] | drug sensitivity score [8] | drug sensitivity score [9] | drug sensitivity score [10] | drug sensitivity score [11] | drug sensitivity score [12] | drug sensitivity score [13] | drug sensitivity score [14] | drug sensitivity score [15] | drug sensitivity score [16] |
| --- | --- | --- | --- | --- | --- | --- | --- | --- | --- | --- | --- | --- | --- | --- | --- | --- |
| CCOc1ccn(-c2ccc(F)cc2)c(=O)c1C(=O)Nc1ccc(Oc2ccnc(N)c2Cl)c(F)c1 | 0 | 0.9 | 0 | 0 | 0 | 0 | 0 | 0 | 0 | 0 | 0 | 0 | 0 | 0 | 0 | 0 |
| CCn1c(-c2nonc2N)nc2cnc(Oc3cccc(NC(=O)c4ccc(OCCN5CCOCC5)cc4)c3)cc21 | 4.8 | 1.6 | 6.3 | 0.4 | 0.6 | 1.3 | 2.3 | 3.7 | 2.2 | 2 | 1.7 | 2.3 | 0 | 3.8 | 2.9 | 0.4 |
| CCn1c(C(=O)N(C2CC2)C2CC2)cc2c3c(ncn3C)c(Nc3cc(C)n(C)n3)nc21 | 0.6 | 1.4 | 4.7 | 0.9 | 0 | 0 | 2.1 | 0.1 | 0 | 2.8 | 0 | 1.05 | 0 | 0.4 | 0.8 | 0.9 |
| CN(c1ncccc1CNc1nc(Nc2ccc3c(c2)CC(=O)N3)ncc1C(F)(F)F)S(C)(=O)=O | 6.6 | 9.4 | 9.5 | 7.1 | 5.3 | 6.6 | 5.1 | 4.9 | 3.6 | 7 | 5.7 | 5.3 | 3.9 | 7.8 | 5.2 | 7.9 |
| CNC(=O)c1ccc(C)c(-n2c(C)cc(OCc3ccc(F)cc3F)c(Br)c2=O)c1 | 0 | 0 | 0 | 0 | 0 | 0 | 0 | 0 | 0 | 0.3 | 0 | 0 | 0 | 0 | 0 | 0 |
| CNc1nc(-c2ccc3c(N)n[nH]c3c2)cc(N2C[C@@H](C(=O)NC3CCCCC3)CC[C@H]2C)n1 | 3.8 | 8.7 | 0.8 | 0 | 0.5 | 4.2 | 0 | 0 | 0.6 | 0 | 0 | 0 | 6.9 | 5.7 | 1.4 | 6 |
| COc1cc2ncnc(Oc3cccc(NC(=O)Nc4cc(C(C)(C)C(F)(F)F)on4)c3)c2cc1OC | 4 | 6.6 | 4.4 | 0 | 0 | 0.3 | 1.3 | 3.3 | 0.3 | 0 | 0 | 0 | 0 | 1.1 | 0 | 0 |
| C[C@@H](Oc1ccc2[nH]nc(/C=C/c3cnn(CCO)c3)c2c1)c1c(Cl)cncc1Cl | 6.3 | 4.2 | 3.9 | 3.1 | 1.8 | 6 | 3.3 | 2.4 | 0 | 4.1 | 3.5 | 1.7 | 1 | 6.8 | 2.4 | 0.6 |
| C[C@@H]1CN(CC(=O)Nc2ccc3c(c2)Cc2cccc(-c4cc(=O)cc(N5CCOCC5)o4)c2S3)C[C@H](C)O1 | 0.5 | 0.5 | 0.2 | 0.9 | 1.9 | 0.6 | 0 | 1 | 0.3 | 0.2 | 0.8 | 5.75 | 3.4 | 1 | 0 | 0 |
| Cc1c(Cn2c(C)nc3c(C(=O)O)cc(N4CCOCC4)cc32)cccc1C(F)(F)F | 0 | 6.3 | 2.2 | 0.5 | 0.65 | 0.6 | 0 | 0 | 2.5 | 0 | 0 | 3 | 3.5 | 11.4 | 0.1 | 7.2 |
| Cc1cccc(CC(=O)N2CCc3c2ccc(-c2cn(C)c4ncnc(N)c24)c3F)n1 | 0 | 0 | 0 | 0 | 0 | 0 | 0 | 0 | 0 | 0 | 0.2 | 0 | 0.2 | 1.6 | 0 | 0 |
| NCC(=O)Nc1ccc(-n2nc(C(F)(F)F)cc2-c2ccc3c(ccc4ccccc43)c2)cc1 | 6.9 | 4.3 | 1.8 | 0.4 | 1.2 | 0 | 0 | 0 | 0 | 1.9 | 0.8 | 3.05 | 7.9 | 5.2 | 0 | 4.5 |
| NC[C@@](O)(c1ccc(Cl)cc1)c1ccc(-c2cn[nH]c2)cc1 | 4.1 | 0.4 | 0 | 0.3 | 0 | 1.5 | 2.6 | 2.8 | 0 | 0 | 1.1 | 4.55 | 2.8 | 0.4 | 0 | 2.8 |
| Nc1nccc(-c2c(-c3ccc(F)cc3)ncn2C2CCCCC2)n1 | 4.9 | 3.4 | 1.1 | 1.6 | 0.05 | 0.1 | 0 | 2.5 | 0.2 | 1.6 | 0.4 | 0.85 | 1.7 | 1.8 | 1 | 6.9 |
| Nc1ncnc2c1c(COc1cccc(Cl)c1)nn2C1CCOCC1 | 0.5 | 1 | 0.4 | 0 | 0 | 0 | 0 | 0 | 0.3 | 0 | 0 | 0 | 0.6 | 1.9 | 0.8 | 0 |
| O=C(O)c1ccc(-c2c[nH]c3ncc(-c4ccccc4)cc23)cc1C1CCCC1 | 0 | 0 | 0 | 0.5 | 0 | 0 | 0 | 0 | 0 | 0 | 0.8 | 0.65 | 0 | 0.4 | 0 | 2.9 |
| O=c1[nH]c(C2CCCN2)nc2c1oc1ccc(Cl)cc12 (configuration not stated) | 2.7 | 0 | 3.9 | 0.3 | 0 | 0 | 0 | 0.4 | 0 | 0 | 0 | 0 | 2 | 0 | 0 | 4.4 |
| CC#CC(=O)N1CC[C@@H](n2c(=O)n(-c3ccc(Oc4ccccc4)cc3)c3c(N)ncnc32)C1 [Tirabrutinib] | 3.9 | 3.9 | 3.5 | 1.8 | 0 | 0 | 0 | 1.6 | 0 | 2.6 | 0 | 0 | – | 3.5 | 1.1 | 0 |
| O=c1[nH]c(=O)n([C@H]2C[C@H](O)[C@@H](CO)O2)cc1C(F)(F)F [Trifluridine] | 0 | 0 | 0 | 0 | 0 | 1.2 | 0 | 0.3 | 0 | 0 | 0 | 0 | – | 0.2 | 0.5 | 0 |
| Cc1cc(Nc2ncnc3ccc(NC4=NC(C)(C)CO4)cc23)ccc1Oc1ccn2ncnc2c1 [Tucatinib] | 0 | 0.1 | 0 | 0 | 0 | 0 | 0 | 0 | 0 | 0 | 0 | 0 | – | 0.5 | 0 | 1 |
| CC[C@@H]1CN(C(=O)NCC(F)(F)F)C[C@@H]1c1cnc2cnc3[nH]ccc3n12 [Upadacitinib] | 0 | 0 | 0 | 0 | 0.1 | 1.3 | 0 | 0 | 0 | 0 | 0 | 1.2 | – | 0 | 0 | 2.1 |
| CCCCOc1nc(N)c2c(n1)N(Cc1cccc(CN3CCCC3)c1)CC(=O)N2 [Vesatolimod] | 0 | 0 | 0 | 0 | 0 | 0 | 0.2 | 0 | 0 | 0 | 0 | 0 | – | 0.1 | 0 | 0 |
| COc1cccc(-c2ccc(NC(=O)C3=C(C(=O)O)CCC3)c(F)c2)c1 [Vidofludimus] | 0 | 0 | 0 | 0.4 | 0.05 | 0 | 0 | 0.6 | 0 | 0 | 0 | 0 | – | 2.5 | 0 | 0 |
| CC[C@]12C=CCN3CC[C@@]4(c5cc([C@@]6(C(=O)OC)C[C@@H]7C[C@@H](C(C)(F)F)CN(Cc8c6[nH]c6ccccc86)C7)c(OC)cc5N(C)[C@H]4[C@@](O)(C(=O)OC)[C@@H]1OC(C)=O)[C@@H]32 [Vinflunine] | 3.6 | 3.2 | 5.8 | 1.7 | 4.1 | 0.8 | 3.6 | 3.4 | 0 | 5.1 | 0.9 | 0 | – | 3.6 | 0.6 | 1.3 |
